Measured values as given in patent US10537535B2, “Histone deacetylase inhibitors” (The Regents of the University of California, priority 2015, dated 2020).

Assays:
[1] = tested on: H3K14 acetylation in HEK293 cells; experiment: Western blot of histone acetylation in HEK293 nuclear extracts: H3K14; format: cell-based, human
Procedure: (§1) In order to test whether diacetyl can increase acetylation of histones in vivo, human HEK293 cells were used, which offer a tractable system to prepare nuclear extracts. The cells were exposed to different doses of diacetyl for 2 or 6 hours, and monitored histone acetylation levels by Western blot analysis from nuclear extract. […] The acetylation levels of H3K14 and H4K5 were not affected (FIG. 5A).
(§2) Human embryonic kidney 293 (HEK293) cells were grown in 100 mm cell culture dishes with Dulbecco's modified Eagle's medium (DMEM) (10-013, Corning, Manassas, Va.), supplemented with 10% fetal bovine serum (FBS) (26140-079, Gibco, Carlsbad, Calif.) at 37° C. with 5% CO2. Cells that were ˜80% confluent were treated with freshly-prepared medium supplemented with diacetyl at concentrations indicated. In order to prevent diffusion of diacetyl odor from the treatment dishes to the outside environment, the cell culture dishes were put into a custom-made container (155.6×155.6×85.7 mm) with a charcoal filter top. […]
(§3) Proteins in the nuclear extracts (60 μg protein) were separated by SDS-PAGE gels (456-1043, Bio-Rad, Hercules, Calif.), transferred onto PVDF membranes (162-0174, Bio-Rad), and incubated with anti-histone antibodies: acetylated H3K9 (1/2000: ab4441, abeam, Cambridge, Mass.), acetylated H3K14 (1/5000: 06-911, EMD Millipore, Billerica, Mass.), acetylated H4K5 (1/2000: 07-327, EMD Millipore). Bound antibody was detected by horseradish peroxidase-conjugated anti-rabbit secondary antibody (1/20000: 1705046, Bio-Rad) and developed using Clarity™ Western ECL Substrate (1705060, Bio-Rad). Signals were detected and captured by ImageQuant™ LAS 4000 mini (GE healthcare, Pittsburgh, Pa.), and band intensities were quantified with ImageJ software. H3K9 acetylation intensity in individual lanes was reported relative to the normalized Mock treatment (Mock H3K9ace/Mock PCNA), and calculated using this formula: Relative H3K9ace intensity for each timepoint=(Diacetyl H3K9ace/diacetyl PCNA)/(Mock H3K9ace/Mock PCNA).

pGMR-HTTQ120 flies = experiment: Huntington's model Drosophila (pGMR-HTTQ120), rhabdomere count by pseudopupil analysis; format: in vivo
Description: To investigate the effect of diacetyl on neurodegeneration, Huntington model Drosophila flies (GMR-HTTQ120; expressing human huntington HTTQ120 protein from a GMR promoter) were exposed to odor 1 (diacetyl) at 1% concentration from filter paper for five days as a volatile scent. Following exposure, the omatidia in the eyes of the flies were visualized. […] The number of rhabdomeres present in the omatidia were counted (wildtype flies have 7 rhabdomeres in each omatidia).
When the transgenic flies expressing two copies of the human Huntington with poly-Q repeats (HTTQ120) under control of the eye-specific GMR promoter were raised at 18° C., the number of rhabdomeres in each ommatidium was similar to that of control flies (7) immediately post-eclosion (day 1, FIGS. 8A-8C). […] The mean number of rhabdomeres was reduced from 7 to ˜1 by day 10.
Flies were exposed to diacetyl in a cylindrical container (112 mm diameter×151 mm height). Each container was tightly closed but had 2 holes, one of which connected to an air suction port, and the other to a vial containing either of 5 mL paraffin oil or 5 mL 1% diacetyl in paraffin oil. A gentle suction was applied to pull the headspace from the odor or paraffin oil vials into the cylindrical structure (FIG. 11). pGMR-HTTQ120 flies were maintained at 18° C. Adult flies aged 1 d were transferred to fly vials containing fresh medium, and put into the odor-filled container at room temperature. Paraffin oil and 1% diacetyl solution were prepared and replaced every day. At the end of the fifth day of exposure, half of the flies were collected and subjected to pseudopupil analysis. The remaining flies were transferred to fresh medium and exposed to the odors for an additional 5 days. All treatments and experiments were performed at room temperature.
Pseudopupil Analysis was performed according to a protocol described previously (Song et al., 2013). Flies were decapitated and mounted on a microscope slide by dipping in a drop of nail polish. The arrangement of rhabdomeres in the ommatidia of the compound eyes were analyzed with Axio Imager M2 (Carl Zeiss, Oberkochen, Germany) using a 63× objective, and photographed with Axiocam 506 mono (Carl Zeiss). Six hundred ommatidia from 30 eyes of 15 flies were scored for each condition.

[2] = tested on: H4K5 acetylation in HEK293 cells; experiment: Western blot of histone acetylation in HEK293 nuclear extracts: H4K5; format: cell-based, human
Procedure: as §1, §2, §3

[3] = tested on: H3K9 acetylation in HEK293 cells; experiment: Western blot of histone acetylation in HEK293 nuclear extracts: H3K9; format: cell-based, human
Procedure: The effect of diacetyl on histone acetylation was further investigated using direct analysis of histone 3K9 acetylation in HEK cells. In vivo activity of diacetyl was determined by gel electrophoresis chromatography of HEK cell lysate exposed to 0 μM, 1 μM and 10 μM of diacetyl (odor 1) in whole HEK cell lysates. […] Proliferating cell nuclear antigen (PCNA; 29 kDa) is a nuclear protein included as a loading control for nuclear protein extracts.
as §1
Human embryonic kidney 293 (HEK293) cells were grown in 100 mm cell culture dishes with Dulbecco's modified Eagle's medium (DMEM) (10-013, Corning, Manassas, Va.), supplemented with 10% fetal bovine serum (FBS) (26140-079, Gibco, Carlsbad, Calif.) at 37° C. with 5% CO2. Cells that were ˜80% confluent were treated with freshly-prepared medium supplemented with diacetyl at concentrations indicated. In order to prevent diffusion of diacetyl odor from the treatment dishes to the outside environment, the cell culture dishes were put into a custom-made container (155.6×155.6×85.7 mm) with a charcoal filter top. The cells for non-treatment controls were handled in the same manner without adding diacetyl to the medium.
Nuclear extracts of HEK293 cells were prepared according to a protocol described previously (Andrews and Faller, 1991), with minor modifications. In brief, HEK293 cells were washed twice with cold phosphate-buffered saline (PBS) and lysed with hypotonic buffer (10 mM HEPES-KOH [pH 7.9], 1.5 mM MgCl2, 10 mM KCl, protease inhibitor cocktail [Roche], 1 mM DTT, 1 mM TSA). Following a brief centrifugation, the pellet was resuspended in hypertonic buffer (20 mM HEPES-KOH [pH 7.9], 25% glycerol, 420 mM NaCl 1.5 mM MgCl2, 0.2 mM EDTA, protease inhibitor cocktail (04693159001, Roche, Indianapolis, Ind.), 1 mM DTT, 1 mM TSA). The supernatant was recovered as nuclear extract.
as §3

With `CC(=O)C(C)=O` [diacetyl, 2,3-Butanedione] the H3K14 acetylation level ([1]; 1 mM, 2 or 6 hours) was “did not alter”, the H3K14 acetylation level ([1]; 10 mM, 2 hours) was “not affected” and the H3K14 acetylation level ([1]; 10 mM, 6 hours) was “unaffected”. The “rhabdomeres left in the majority of ommatidia” value (pGMR-HTTQ120 flies; 1% headspace, after 10 days, solvent controls ~1-2) was 2-3 rhabdomeres, the “rhabdomeres retained in the majority of ommatidia” value (pGMR-HTTQ120 flies; 1% headspace, day 5) was 6-7 rhabdomeres and the “rhabdomeres in omatidia vs not exposed flies” value (pGMR-HTTQ120 flies; GMR-HTTQ120 flies, 1% from filter paper, five days, FIG. 2A) was “greater rhabdomeres”. For the same molecule, the “inhibition of rhabdomere loss” value (pGMR-HTTQ120 flies; volatile headspace of 1% diacetyl in paraffin oil, after eclosion, 25° C.) was 50%, the H4K5 acetylation level ([2]; 1 mM, 2 or 6 hours) was “did not alter” and the H4K5 acetylation level ([2]; 10 mM, 2 hours) was “not affected”. The H4K5 acetylation level ([2]; 10 mM, 6 hours) was “unaffected”, the H3K9 acetylation level ([3]; 100 μM, 120 hrs) was “significantly higher levels” and the H3K9 acetylation level ([3]; 100 μM, prolonged exposure 3-5 days, onset) was “increased only after 96 hrs”. The H3K9 acetylation level ([3]; 1 mM, 2 or 6 hours) was “did not alter”, the H3K9 acetylation level ([3]; 10 mM, 2 hours, vs mock) was “significantly increased” and the H3K9 acetylation level ([3]; 10 mM, 6 hours) was “further increased”. For the same molecule, the “level of acetyl H3K9 (H3K9Ace)” value ([3]; HEK cells, 0 μM, 1 μM and 10 μM, FIG. 1D) was “increased with increasing concentrations”.
